Test results reported in patent publication US7739055B2, “Methods and systems for generating and evaluating peptides” (priority 2005, dated 2010).
Where a SMILES comes first, the peptide text is derived from it.

Tested on: B. cereus

Q: Which “MIC B. cereus” value does the source give for `CC[C@H](C)[C@H](NC(=O)[C@H](CC(C)C)NC(=O)[C@H](C)NC(=O)[C@@H]1CCCN1C(=O)[C@H](C)NC(=O)[C@@H](NC(=O)[C@H](CCCCN)NC(=O)[C@@H](N)CCCNC(=N)N)C(C)C)C(=O)N[C@@H](CCCCN)C(=O)N[C@@H](CO)C(=O)N[C@@H](Cc1ccccc1)C(=O)N[C@H](C(=O)N[C@@H](Cc1ccccc1)C(=O)N[C@@H](CC(C)C)C(=O)N[C@@H](Cc1ccccc1)C(=O)N[C@@H](CCCCN)C(=O)N[C@@H](Cc1ccccc1)C(=O)N[C@@H](CCCCN)C(=O)N[C@@H](CCCCN)C(=O)NCC(=O)O)C(C)C` [Shuffled 51] (H-RKVAPALIKSFVFLFKFKKG-OH; N-terminus and C-terminus assumed) here?
A: Its value is “+ (key: +: MIC greater than 256 ug/mL; ++: MIC greater than 128 ug/mL, not sufficiently soluble to test as 256 ug/mL)”.
